For data set [1], the system named is T1 lipase. Description: Lipase stability test: residual activity of T1 lipase after incubation with detergent components. It is filed as biochemical, Geobacillus zalihae strain T1. The note with it: for Stability of T1 lipase in the component (in words): incubation in 0.2% (w/v) component, 60° C., 30 min. On the procedure: The compatibility of the T1 lipase with the other components of the formulated detergent was evaluated by incubating the enzyme in 0.2% (w/v) of those components, i.e., surfactants, bleaches, and alkalinity agents in a water bath (Protech, Malaysia) at 60° C. for 30 min. After 30 min, the enzyme was assayed for its residual activity.
J Am Oil Chem Soc. 63(1): p. 89-92]. A cupric acetate pyridine reagent was prepared by mixing 5% (w/v) copper (II) acetate with DI water and adjusting the solution pH to 6.1 with pyridine. The substrate emulsion used consisted of olive oil/50 mM of Glycine-NaOH buffer at pH 9.0 (1:1), which was homogenized using a homogenizer (Heidolph, Germany). […] After 30 min, the reaction was stopped by adding 5 ml isooctane and 1 ml 6 N HCl, and the mixture was vortexed for 30 s and left for 15 min. 4 ml of the upper layer of the mixture, which contained the fatty acids, was transferred to a test tube containing 1 ml of the cupric acetate pyridine reagent, and the mixture was vortexed for 30 s and left for 1 hour. The color of the solution was then evaluated colorimetrically by reading the OD using the Ultraspec 2100 Pro spectrophotometer (Amersham Bioscience, Sweden) at 715 nm. All assays were done in triplicates. 1 unit (U) of lipase activity was defined as the rate of 1 μmol of fatty acid released per minute under standard assay conditions.

Data set [2] can be described thus: Resulting pH of the alkalinity agents in solution. The class given is physicochemical. The note with it: resulting pH of the alkalinity agent in solution.
Setting [3] is: T1 lipase residual activity after 30 min at 60° C. in 0.2% (w/v) surfactant or bleach, w/o control = 100.
Where [4] appears, read: T1 lipase residual activity after 30 min at 60° C. in 0.2% (w/v) alkalinity agent, Glycine-NaOH control = 100.

`CCCCCCCCCCCCCCCC[N+](C)(C)C.[Br-]` [CTAB, cetyl trimethylammonium bromide]: the “Relative activity (%)” value in data set [1] (setting [3]) is recorded as 1.9%. In addition, the “Stability of T1 lipase in the component (in words)” value (“Stability of T1 lipase” for short) in data set [1] is “strongly destabilized”.
Turning to `CCCCCCCCCCCCOS(=O)(=O)[O-].[Na+]` [SDS, sodium dodecyl sulfate], in data set [1] (setting [3]), the “Relative activity (%)” value worked out at 14%. The “Stability of T1 lipase” value in data set [1] was “destabilized”.
For `O=C([O-])O.[Na+]` [Sodium bicarbonate, sodium bicarbonate], the “Relative activity (%)” value in data set [1] (setting [4]) is 94%. Besides, the pH in data set [2] came out at 8.63.
As for `O=C([O-])[O-].[Na+].[Na+]` [Sodium carbonate, sodium carbonate], in data set [1] (setting [4]), the “Relative activity (%)” value is listed as 1%. Further, the “Stability of T1 lipase” value in data set [1] was “lowest residual activities”; in data set [1] (listed as carbonate), “greatly destabilized”. In data set [2], this compound had a pH of 10.84.
With `O=C([O-])CC(O)(CC(=O)[O-])C(=O)[O-].[Na+].[Na+].[Na+]` [Sodium citrate, sodium citrate], in data set [1] (setting [4]), the “Relative activity (%)” value worked out at 48%. The “Stability of T1 lipase” value in data set [1] was “did not greatly affect the stability”. In data set [2], the pH is listed as 8.30.
Take `O=C([O-])[O-].O=C([O-])[O-].OO.OO.OO.[Na+].[Na+].[Na+].[Na+]` [Sodium percarbonate, sodium percarbonate]: the “Relative activity (%)” value in data set [1] (setting [3]) is recorded as 0.3%. The “Stability of T1 lipase” value in data set [1] is on record as “strongly destabilized”.
For the compound `O=P(O)(O)OP(=O)(O)OP(=O)(O)O` [Sodium tripolyphosphate, sodium tripolyphosphate], the “Relative activity (%)” value in data set [1] (setting [4]) is 0%. The “Stability of T1 lipase” value in data set [1] was “lowest residual activities”. This compound yielded a pH in data set [2] of 9.60.
`CCCCCCCC/C=C\CCCCCCCC(=O)OCCOCC(OCCO)C1OCC(OCCO)C1OCCO` (centres unmarked) [Tween 80, polysorbate 80]: the “Relative activity (%)” value in data set [1] (setting [3]) was 98%. In addition, in data set [1], the “Stability of T1 lipase” value is on record as “highest stability”.
As for Polyethylene glycol 300 [PEG 300], the “Relative activity (%)” value in data set [1] (setting [3]) was determined as 61%.
Take sodium perborate: the “Relative activity (%)” value in data set [1] (setting [3]) was 3.4%. In data set [1], the “Stability of T1 lipase” value is listed as “strongly destabilized”.

The record behind these values is patent US10196588B2, “Detergent formulation for dishwashing machine” (Universiti Putra Malaysia (UPM), priority 2012, dated 2019).
